Assay results as given in PubChem BioAssay (NCI).
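How tested: cells in 96-well plates exposed to compound for 48 hours at five concentrations. TGI: total growth inhibition.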

Experiments:
Assay in all cases: inhibition of tumour cell growth, NCI panel, 48 h
786-0 renal = tested on: 786-0 renal
A498 renal = tested on: A498 renal
A549 NSCLC = tested on: A549 NSCLC
ACHN renal = tested on: ACHN renal
CAKI-1 renal = tested on: CAKI-1 renal
CCRF-CEM leukemia = tested on: CCRF-CEM leukemia
COLO 205 colon = tested on: COLO 205 colon
DLD-1 colon = tested on: DLD-1 colon
DMS 273 small cell lung = tested on: DMS 273 small cell lung
EKVX NSCLC = tested on: EKVX NSCLC
HCC-2998 colon = tested on: HCC-2998 colon
HCT-116 colon = tested on: HCT-116 colon
HCT-15 colon = tested on: HCT-15 colon
HL-60(TB) leukemia = tested on: HL-60(TB) leukemia
HOP-18 NSCLC = tested on: HOP-18 NSCLC
HOP-62 NSCLC = tested on: HOP-62 NSCLC
HOP-92 NSCLC = tested on: HOP-92 NSCLC
HT29 colon = tested on: HT29 colon
IGROV1 ovarian = tested on: IGROV1 ovarian
K-562 leukemia = tested on: K-562 leukemia
KM12 colon = tested on: KM12 colon
KM20L2 colon = tested on: KM20L2 colon
LOX IMVI melanoma = tested on: LOX IMVI melanoma
LXFL 529 NSCLC = tested on: LXFL 529 NSCLC
M14 melanoma = tested on: M14 melanoma
M19-MEL melanoma = tested on: M19-MEL melanoma
MALME-3M melanoma = tested on: MALME-3M melanoma
MOLT-4 leukemia = tested on: MOLT-4 leukemia
NCI-H226 lung = tested on: NCI-H226 lung
NCI-H23 lung = tested on: NCI-H23 lung
NCI-H460 lung = tested on: NCI-H460 lung
NCI-H522 lung = tested on: NCI-H522 lung
OVCAR-3 ovarian = tested on: OVCAR-3 ovarian
OVCAR-4 ovarian = tested on: OVCAR-4 ovarian
OVCAR-5 ovarian = tested on: OVCAR-5 ovarian
OVCAR-8 ovarian = tested on: OVCAR-8 ovarian
RPMI-8226 leukemia = tested on: RPMI-8226 leukemia
RXF 393 renal = tested on: RXF 393 renal
RXF-631 renal = tested on: RXF-631 renal
SF-268 CNS = tested on: SF-268 CNS
SF-295 CNS = tested on: SF-295 CNS
SF-539 CNS = tested on: SF-539 CNS
SK-MEL-2 melanoma = tested on: SK-MEL-2 melanoma
SK-MEL-28 melanoma = tested on: SK-MEL-28 melanoma
SK-MEL-5 melanoma = tested on: SK-MEL-5 melanoma
SK-OV-3 ovarian = tested on: SK-OV-3 ovarian
SN12C renal = tested on: SN12C renal
SNB-19 CNS = tested on: SNB-19 CNS
SNB-75 CNS = tested on: SNB-75 CNS
SNB-78 CNS = tested on: SNB-78 CNS
SR leukemia = tested on: SR leukemia
SW-620 colon = tested on: SW-620 colon
TK-10 renal = tested on: TK-10 renal
U251 CNS = tested on: U251 CNS
UACC-257 melanoma = tested on: UACC-257 melanoma
UACC-62 melanoma = tested on: UACC-62 melanoma
UO-31 renal = tested on: UO-31 renal
XF 498 CNS = tested on: XF 498 CNS

Q: `CCCCCCN(CCCCCC)C1=CC(=O)C(=O)c2ccccc21` was tested. Which TGI (786-0 renal) did it give?
A: 30.3 µM

Q: And the TGI (A498 renal)?
A: 41.6 µM

Q: And the TGI (A549 NSCLC)?
A: 36.5 µM

Q: What about the TGI (ACHN renal) of the same compound?
A: 30.9 µM

Q: And the TGI (CAKI-1 renal)?
A: 28.6 µM

Q: And the TGI (CCRF-CEM leukemia)?
A: > 100 µM

Q: And the TGI (COLO 205 colon)?
A: 31.4 µM

Q: And the TGI (DLD-1 colon)?
A: 32.3 µM

Q: What about the TGI (DMS 273 small cell lung) of the same compound?
A: 34.7 µM

Q: What about the TGI (EKVX NSCLC) of the same compound?
A: 27.7 µM

Q: And the TGI (HCC-2998 colon)?
A: 35.6 µM

Q: What about the TGI (HCT-116 colon) of the same compound?
A: 32.9 µM

Q: And the TGI (HCT-15 colon)?
A: 34.8 µM

Q: What about the TGI (HL-60(TB) leukemia) of the same compound?
A: 34.6 µM

Q: What about the TGI (HOP-18 NSCLC) of the same compound?
A: 29.7 µM

Q: What about the TGI (HOP-62 NSCLC) of the same compound?
A: 32.8 µM

Q: What about the TGI (HOP-92 NSCLC) of the same compound?
A: 28.7 µM

Q: What about the TGI (HT29 colon) of the same compound?
A: 35.6 µM

Q: And the TGI (IGROV1 ovarian)?
A: 31.1 µM

Q: What about the TGI (K-562 leukemia) of the same compound?
A: 46.4 µM

Q: What about the TGI (KM12 colon) of the same compound?
A: 31.5 µM

Q: And the TGI (KM20L2 colon)?
A: 37.6 µM

Q: And the TGI (LOX IMVI melanoma)?
A: 22.1 µM

Q: What about the TGI (LXFL 529 NSCLC) of the same compound?
A: 33.4 µM

Q: And the TGI (M14 melanoma)?
A: 32.4 µM

Q: What about the TGI (M19-MEL melanoma) of the same compound?
A: 4.99 µM

Q: What about the TGI (MALME-3M melanoma) of the same compound?
A: 35.8 µM

Q: And the TGI (MOLT-4 leukemia)?
A: 51.3 µM

Q: And the TGI (NCI-H226 lung)?
A: 34.7 µM

Q: And the TGI (NCI-H23 lung)?
A: 27.8 µM

Q: What about the TGI (NCI-H460 lung) of the same compound?
A: 33.6 µM

Q: And the TGI (NCI-H522 lung)?
A: 24.2 µM

Q: And the TGI (OVCAR-3 ovarian)?
A: 14 µM

Q: And the TGI (OVCAR-4 ovarian)?
A: 29.2 µM

Q: What about the TGI (OVCAR-5 ovarian) of the same compound?
A: 33.2 µM

Q: What about the TGI (OVCAR-8 ovarian) of the same compound?
A: 29.7 µM

Q: And the TGI (RPMI-8226 leukemia)?
A: 60.2 µM

Q: What about the TGI (RXF 393 renal) of the same compound?
A: 40.5 µM

Q: And the TGI (RXF-631 renal)?
A: 38.3 µM

Q: And the TGI (SF-268 CNS)?
A: 36.6 µM

Q: And the TGI (SF-295 CNS)?
A: 29.1 µM

Q: And the TGI (SF-539 CNS)?
A: 30.9 µM

Q: And the TGI (SK-MEL-2 melanoma)?
A: 35.1 µM

Q: And the TGI (SK-MEL-28 melanoma)?
A: 31.8 µM

Q: And the TGI (SK-MEL-5 melanoma)?
A: 30.9 µM

Q: What about the TGI (SK-OV-3 ovarian) of the same compound?
A: 31.6 µM

Q: And the TGI (SN12C renal)?
A: 30.3 µM

Q: And the TGI (SNB-19 CNS)?
A: 29.6 µM

Q: And the TGI (SNB-75 CNS)?
A: 31.1 µM

Q: What about the TGI (SNB-78 CNS) of the same compound?
A: 51.8 µM

Q: What about the TGI (SR leukemia) of the same compound?
A: 63.3 µM

Q: What about the TGI (SW-620 colon) of the same compound?
A: 27.3 µM

Q: And the TGI (TK-10 renal)?
A: 36.1 µM

Q: And the TGI (U251 CNS)?
A: 29.3 µM

Q: What about the TGI (UACC-257 melanoma) of the same compound?
A: 28.6 µM

Q: What about the TGI (UACC-62 melanoma) of the same compound?
A: 30.8 µM

Q: What about the TGI (UO-31 renal) of the same compound?
A: 26.2 µM

Q: Which TGI (786-0 renal) does the source give for `COc1ccc2c(c1)CC[C@@H]1C2CC[C@]2(C)C(=N\O)/C(=N/O)CC12` (some centres undefined) here?
A: 31.8 µM

Q: What about the TGI (A498 renal) of the same compound?
A: 34.2 µM

Q: What about the TGI (A549 NSCLC) of the same compound?
A: 24.7 µM

Q: And the TGI (ACHN renal)?
A: 33.6 µM

Q: And the TGI (CAKI-1 renal)?
A: 24.1 µM

Q: What about the TGI (CCRF-CEM leukemia) of the same compound?
A: 29.9 µM

Q: And the TGI (COLO 205 colon)?
A: 31.6 µM

Q: What about the TGI (DLD-1 colon) of the same compound?
A: 36.6 µM

Q: What about the TGI (DMS 273 small cell lung) of the same compound?
A: 26.7 µM

Q: What about the TGI (EKVX NSCLC) of the same compound?
A: 38.9 µM

Q: What about the TGI (HCC-2998 colon) of the same compound?
A: 37.8 µM

Q: What about the TGI (HCT-116 colon) of the same compound?
A: 29.5 µM

Q: What about the TGI (HCT-15 colon) of the same compound?
A: 26.2 µM

Q: What about the TGI (HL-60(TB) leukemia) of the same compound?
A: 35.7 µM

Q: What about the TGI (HOP-18 NSCLC) of the same compound?
A: 30.4 µM

Q: And the TGI (HOP-62 NSCLC)?
A: 26 µM

Q: And the TGI (HOP-92 NSCLC)?
A: 30.6 µM

Q: And the TGI (HT29 colon)?
A: 5.14 µM

Q: And the TGI (IGROV1 ovarian)?
A: 10 µM

Q: What about the TGI (K-562 leukemia) of the same compound?
A: 36 µM

Q: What about the TGI (KM12 colon) of the same compound?
A: 42.7 µM

Q: And the TGI (KM20L2 colon)?
A: 18.5 µM

Q: And the TGI (LOX IMVI melanoma)?
A: 6.11 µM

Q: And the TGI (LXFL 529 NSCLC)?
A: 26.8 µM

Q: What about the TGI (M14 melanoma) of the same compound?
A: 32.9 µM

Q: And the TGI (M19-MEL melanoma)?
A: 37 µM

Q: And the TGI (MALME-3M melanoma)?
A: 32.5 µM

Q: And the TGI (MOLT-4 leukemia)?
A: 21.1 µM

Q: And the TGI (NCI-H226 lung)?
A: 27.1 µM

Q: What about the TGI (NCI-H23 lung) of the same compound?
A: 23.1 µM

Q: What about the TGI (NCI-H460 lung) of the same compound?
A: 12.5 µM

Q: And the TGI (NCI-H522 lung)?
A: 11.5 µM

Q: What about the TGI (OVCAR-3 ovarian) of the same compound?
A: 26.8 µM

Q: What about the TGI (OVCAR-5 ovarian) of the same compound?
A: 25.8 µM

Q: What about the TGI (OVCAR-8 ovarian) of the same compound?
A: 33.7 µM

Q: And the TGI (RPMI-8226 leukemia)?
A: 35.2 µM

Q: And the TGI (SF-268 CNS)?
A: 37.8 µM

Q: And the TGI (SF-295 CNS)?
A: 23.9 µM

Q: And the TGI (SF-539 CNS)?
A: 35.1 µM

Q: And the TGI (SK-MEL-2 melanoma)?
A: 26.9 µM

Q: What about the TGI (SK-MEL-5 melanoma) of the same compound?
A: 25.7 µM

Q: What about the TGI (SK-OV-3 ovarian) of the same compound?
A: 32.6 µM

Q: What about the TGI (SN12C renal) of the same compound?
A: 36.5 µM

Q: And the TGI (SNB-19 CNS)?
A: 32.9 µM

Q: And the TGI (SNB-78 CNS)?
A: 47.5 µM

Q: And the TGI (SW-620 colon)?
A: 40.2 µM

Q: What about the TGI (TK-10 renal) of the same compound?
A: 41.2 µM

Q: What about the TGI (U251 CNS) of the same compound?
A: 28.7 µM

Q: And the TGI (UACC-257 melanoma)?
A: 32.9 µM

Q: What about the TGI (UACC-62 melanoma) of the same compound?
A: 26.6 µM

Q: And the TGI (UO-31 renal)?
A: 26.5 µM

Q: And the TGI (XF 498 CNS)?
A: 29.6 µM
